Consider 86 compounds from a melting point compilation (Tetko et al.).

Each structure is given as a SMILES string.

For orientation: melting point means the temperature, or range, at which the solid turns liquid. As for `O=C(O)c1nnn(-c2cccc(F)c2)c1C(F)(F)F`, the melting point lay in the range of 130 to 132 °C.

On to `COC(=O)C(Cc1c[nH]c2ccccc12)NC(=O)CCl` (stereo unspecified), for which the melting point is 130 to 132 °C.

Consider `Nc1ccc(CC(=O)Nc2ccccc2F)cc1`, for which the melting point is 110 to 112 °C.

For `Cc1nn(C)c(C)c1S(N)(=O)=O`, the melting point is 213 to 215 °C.

The compound `Cc1nc2ccccc2c(C)c1C(=O)O` showed a melting point of 186 to 188 °C.

Compound `Nc1c(NCCCO)c(=O)[nH]c(=O)n1Cc1ccccc1` registered a melting point of 155 to 157 °C.

In turn, `O=S(=O)(Cl)c1ccc(OCC2CCCCC2)cc1` returned a melting point of 82 to 84 °C.

`ClCc1cc2c(cc1Br)OCCCO2` displayed a melting point of 75 to 77 °C.

Take `COc1ccc(O)cc1C(C)=O`: the melting point fell in the range of 78 to 80 °C.

Consider `O=C(O)CCc1nc2ccccc2o1`, for which the melting point lay in the range of 110 to 112 °C.

The compound `CCOc1ccc(NC2CCN(CC(F)(F)F)CC2)cc1` registered a melting point of 54 to 56 °C.

As for `O=C(CBr)c1c[nH]c2ncccc12`, the melting point is 209 to 211 °C.

In turn, `O=C(O)CCCNc1ncccn1` came in with a melting point of 127 to 129 °C.

As for `O=C(O)c1ccc(-c2ccc([N+](=O)[O-])cc2Cl)o1`, the melting point was 251 to 253 °C.

As for `CN(C)S(=O)(=O)c1cn[nH]c1`, the melting point lay within 132 to 134 °C.

As for `COc1cc(N)c(C(=O)O)c(Br)c1`, the melting point is 134 to 136 °C.

With `NCc1ccc(-n2cncn2)cc1Cl`, the melting point fell in the range of 111 to 113 °C.

Compound `CC(C)(C)OC(=O)NC(C(N)=NO)C1CC1` (stereo unspecified) registered a melting point of 147 to 149 °C.

`COc1cc(NS(=O)(=O)c2ccc(N)cc2)cc(OC)c1`: the melting point was 153 to 155 °C.

Compound `O=C(CCl)Nc1ccc(Oc2ccc(Br)cc2)nc1` yielded a melting point of 114 to 116 °C.

Compound `CC(=O)Nc1ccc(NC(=O)CC#N)cc1` gave a melting point of 305 to 307 °C.

Take `NCCc1ccc(CO)cc1`: the melting point fell in the range of 35 to 37 °C.

The compound `Cc1ccc(-n2nc(C(=O)O)c3c2CCCC3)cc1F` came in with a melting point of 208 to 210 °C.

Compound `CC(=O)CCc1ccc(OCCC(=O)O)cc1` had a melting point of 102 to 104 °C.

`N#CCOc1ccc(/C=C/C(=O)O)cc1` had a melting point of 214 to 216 °C.

For the compound `O=C1CCOc2cc(Br)ccc21`, the melting point lay in the range of 89 to 91 °C.

`COc1cccc(NC(=O)CCl)c1` had a melting point of 73 to 75 °C.

Consider `Nn1c(S)nnc1Cc1ccccc1F`, for which the melting point is 158 to 161 °C.

`CC(C)C1CNC(=O)C1` (stereo unspecified) displayed a melting point of 98 to 100 °C.

In the case of `CCCNCC(=O)Nc1ccc(Cl)cc1`, the melting point was in the range of 44 to 46 °C.

On to `O=C(O)c1cnc2sccn2c1=O`, for which the melting point was 269 to 271 °C.

`O=C(O)c1ccc(-c2ccc(Cl)cc2)cc1F` returned a melting point of 251 to 253 °C.

In turn, `CC1(c2ccc(S(N)(=O)=O)cc2)NC(=O)NC1=O` (stereo unspecified) registered a melting point of 249 to 251 °C.

The compound `COC(=O)c1nsnc1C(=O)O` returned a melting point of 82 to 84 °C.

With `CNc1ccnc(C)c1`, the melting point lay in the range of 59 to 61 °C.

In turn, `Cc1oncc1C(=O)Nc1ccc(O)c(C(=O)O)c1` gave a melting point of 249 to 251 °C.

In turn, `O=C(O)C1CC12CCCc1ccccc12` (stereo unspecified) displayed a melting point of 161 to 163 °C.

Regarding `Cc1cccc(C(N)=O)n1`, the melting point is 117 to 119 °C.

For the compound `CCOC(=O)Cn1[nH]cc(C(=O)OCC)c1=N`, the melting point was in the range of 72 to 74 °C.

In the case of `Cc1cc(C(=O)N2CCCC(C)C2)ccc1N` (stereo unspecified), the melting point fell in the range of 128 to 130 °C.

`CC(C)(C)c1ncc(N)cn1` returned a melting point of 119 to 121 °C.

Compound `O=C(O)c1cc(F)c(F)c(S(=O)(=O)Cl)c1` came in with a melting point of 154 to 156 °C.

Turning to `Nc1cccc(S(=O)(=O)Nc2cn[nH]c2)c1`, the melting point is 194 to 196 °C.

With `CS(=O)(=O)c1ccc(C#N)cc1N`, the melting point lay in the range of 150 to 152 °C.

`CC(C)(C)NCCS(C)(=O)=O` gave a melting point of 39 to 41 °C.

For the compound `CC1(C)CCC(C#N)=C1N`, the melting point was in the range of 108 to 110 °C.

`O=Cc1ccc(N2CCNCC2)s1` gave a melting point of 59 to 63 °C.

On to `O=C(CC1SC(N2CCCC2)=NC1=O)Nc1ccc(C(=O)O)cc1` (stereo unspecified), for which the melting point is 180 to 183 °C.

Turning to `NC(CC(=O)NC1CCCCC1)=NO`, the melting point lay within 167 to 169 °C.

`CCN(CC)c1nc2ccccc2[nH]c1=O` yielded a melting point of 151 to 153 °C.

Take `O=C(O)c1sccc1S(=O)(=O)N1CCCC1`: the melting point lay in the range of 128 to 130 °C.

For the compound `O=Cc1ccc(-n2ccnc2)c(F)c1`, the melting point was in the range of 69 to 71 °C.

In turn, `O=C(O)c1cc([N+](=O)[O-])ccc1Oc1ccccc1` registered a melting point of 167 to 169 °C.

With `CC(NC(=O)CC#N)c1ccccc1` (stereo unspecified), the melting point fell in the range of 115 to 117 °C.

`N#Cc1cn(-c2ccc([N+](=O)[O-])cn2)nc1N` showed a melting point of 322 to 324 °C.

In turn, `O=C(O)c1nnn(-c2cccc(C(F)(F)F)c2)c1C1CC1` showed a melting point of 169 to 171 °C.

Consider `O=C(O)c1cc2ccccn2c1`, for which the melting point was 179 to 181 °C.

`O=C(c1nc2ccccc2s1)C(F)(F)F`: the melting point is 83 to 85 °C.

`COC(=O)c1ccc(Cl)cc1S(=O)(=O)Cl` displayed a melting point of 63 to 65 °C.

Compound `Nc1cccc(Oc2ccncc2)c1` had a melting point of 107 to 109 °C.

For `O=[N+]([O-])c1cc(Cl)ccc1I`, the melting point is 63 to 65 °C.

The compound `NCc1ccc(Oc2ccc(F)cc2)nc1` registered a melting point of 51 to 53 °C.

Regarding `Sc1nnc(-c2cccnc2)n1Cc1ccccc1`, the melting point fell in the range of 179 to 181 °C.

With `NC(=O)c1ccc(S(N)(=O)=O)c(N)c1`, the melting point lay within 202 to 204 °C.

As for `CC(C)(C)OC(=O)NCC1CCC(C(=O)O)CC1` (stereo unspecified), the melting point fell in the range of 132 to 134 °C.

`COC(=O)c1cc([N+](=O)[O-])cc(C)c1C` gave a melting point of 72 to 74 °C.

The compound `Cc1noc(C2CC2)c1C(=O)O` registered a melting point of 164 to 166 °C.

`CN(CC(=O)O)C(=O)c1cccs1` registered a melting point of 101 to 103 °C.

For `COc1ccccc1NS(=O)(=O)c1ccc(C(=O)O)cc1`, the melting point is 201 to 203 °C.

In turn, `O=C1CCCCN1c1ccc(Br)cc1F` gave a melting point of 96 to 98 °C.

Compound `CC(C)CN1CCOC(CNC(=O)CCl)C1` (stereo unspecified) yielded a melting point of 83 to 85 °C.

`COC(=O)C=Cc1ccc([N+](=O)[O-])cc1` came in with a melting point of 161 to 163 °C.

Compound `Nc1cccc(N2CCCCC2=O)c1` had a melting point of 144 to 146 °C.

`Cc1noc(C)c1S(=O)(=O)NC1(C(=O)O)CCCC1` displayed a melting point of 176 to 178 °C.

Take `CCOC(=O)c1sc2nc(C(C)Cl)[nH]c(=O)c2c1C` (stereo unspecified): the melting point lay in the range of 167 to 169 °C.

Take `Nc1ccc(NS(=O)(=O)c2ccc3c(c2)OCCO3)cc1`: the melting point was in the range of 176 to 178 °C.

Consider `NS(=O)(=O)CCN1CCNCC1`, for which the melting point is 144 to 146 °C.

As for `O=C(O)CNC1=NCCCCC1`, the melting point was in the range of 163 to 165 °C.

The compound `COc1ccc(-c2noc(CCCC(=O)O)n2)cc1` yielded a melting point of 109 to 111 °C.

In turn, `CC1CCCCC1(NC(=O)OC(C)(C)C)C(=O)O` (stereo unspecified) had a melting point of 174 to 176 °C.

Turning to `CC(Cl)C(=O)NCCc1cccs1` (stereo unspecified), the melting point is under 17 °C.

Compound `N#Cc1c(N)sc2c1CCCCCC2` returned a melting point of 104 to 106 °C.

On to `FC(F)(F)c1ccc2sc(C3CCNCC3)nc2c1`, for which the melting point fell in the range of 71 to 73 °C.

In turn, `O=C1CCC(C(=O)O)CC1` returned a melting point of 62 to 64 °C.

Compound `CN(C)C(N)=NC(=N)N` gave a melting point of 223 to 226 °C.

The compound `O=C1CC(=O)CC2(CCCCC2)C1` displayed a melting point of 169 to 171 °C.
